PMC9249726 (Clinical Pharmacokinetics, 2022)
Like-named read-outs stand apart in the source and are kept apart here.

How the values were obtained:
[1] = cited from earlier work
Plasma protein binding = type: in vitro ADME, human; details: for fraction unbound: human, plasma, oral, 60 mg, geometric mean (geometric CV)
[2] = system: activated partial thromboplastin time (aPTT); assay: Pharmacodynamic biomarker aPTT after single-dose milvexian 60 mg; type: in vivo, human; details: for Time at which mean aPTT returned to baseline: post-dose; for Maximal percentage increase from baseline in aPTT: single oral 60 mg
[3] = Safety and tolerability of single oral dose milvexian 60 mg; type: in vivo, human; details: single oral 60 mg, all groups, in words
[4] = milvexian 60 mg; ref previous studies; cited from earlier work
[5] = animal studies; no reference given; cited from earlier work
[6] = system: cytochrome P450 (CYP)-3A4; details: in words; no reference given; cited from earlier work
[7] = for increase in exposure, AUC(INF) / increase in exposure, Cmax: mild or moderate hepatic impairment compared with normal hepatic function

## COc1ccc(-n2nc(C(N)=O)c3c2C(=O)N(c2ccc(N4CCCCC4=O)cc2)CC3)cc1 [apixaban]
[1]; apixaban 5 mg
  AUC increase in participants with moderate hepatic impairment: 1.09 fold

## C[C@@H]1CCC[C@H](n2cnc(-c3cc(Cl)ccc3-n3cc(Cl)nn3)cc2=O)c2cc(ccn2)-c2c(cnn2C(F)F)NC1=O [milvexian]
Plasma protein binding; mild hepatic impairment (n = 9)
  fraction unbound: 0.0852
Plasma protein binding; moderate hepatic impairment (n = 8)
  fraction unbound: 0.0955
Plasma protein binding; normal hepatic function (n = 9)
  fraction unbound: 0.0775
Plasma protein binding; in words
  Plasma protein binding: moderate to high
Plasma protein binding; mild hepatic impairment
  geometric mean fraction of unbound milvexian: 8.52%
Plasma protein binding; moderate hepatic impairment
  geometric mean fraction of unbound milvexian: 9.55%
Plasma protein binding; normal hepatic function
  geometric mean fraction of unbound milvexian: 7.75%
[2]; mild hepatic impairment
  Time at which mean aPTT returned to baseline: ≤ 48 h
  Maximal percentage increase from baseline in aPTT: approximately 90%
[2]; moderate hepatic impairment
  Time at which mean aPTT returned to baseline: approximately 72 h
  Maximal percentage increase from baseline in aPTT: approximately 90%
[2]; normal hepatic function
  Time at which mean aPTT returned to baseline: ≤ 48 h
[2]; participants with hepatic impairment (mild or moderate), single dose 60 mg
  increase in aPTT: 90%
[3]
  bleeding AEs: no bleeding AEs
  deaths, SAEs, discontinuations due to AEs: no serious adverse events (AEs), bleeding AEs, or discontinuations due to AEs
  drug-induced liver injury: no reports of drug-induced liver injury
[3]; listed as Milvexian
  deaths, SAEs, discontinuations due to AEs: no deaths, SAEs, or treatment discontinuations due to AEs
[4]
  expected variability in pharmacokinetics: ~ 20%
[5]
  direct biliary excretion: ~ 30 % of the dose
  excretion through metabolism: 40–50 % of the administered dose
[6]
  metabolising enzymes: predominantly metabolized by cytochrome P450 (CYP)-3A4, with minor contributions from CYP3A5
[7]; milvexian 60 mg, group with normal hepatic function
  variability in pharmacokinetics observed in this study: > 50%
[7]; total milvexian
  increase in exposure, AUC(INF): up to 18%
  increase in exposure, Cmax: up to 18%
[7]; unbound milvexian
  increase in exposure, AUC(INF): up to 30%
  increase in exposure, Cmax: up to 40%

## O=C(NC[C@H]1CN(c2ccc(N3CCOCC3=O)cc2)C(=O)O1)c1ccc(Cl)s1 [rivaroxaban]
[1]; rivaroxaban 10 mg
  AUC increase in participants with moderate hepatic impairment: 2.27 fold
